# Experimental data reported in ChEMBL document CHEMBL3885861, “Open TG-GATES”.
# Species on record: Rattus norvegicus
# Assay: Open TG-GATES - Regimen: Single
# Format: toxicity, organism-based, Sprague-Dawley
# Parameters: regimen Single, gender Male, age 6 weeks
# Details: in vivo, po, 300 mg/kg, route gavage, dose level Middle; for APTT / Bas / Eos / Fbg / Hb / Ht / Lym / MCH / MCHC / MCV / Mono / Neu / PT / Plat / RBC / Ret / WBC: tissue Blood; for KIDNEY_L / KIDNEY_R / KIDNEY_TOTAL: tissue Kidney; for LIVER: tissue Liver; for A/G / ALP / ALT / AST / BUN / CRE / Ca / Cl / DBIL / GLC / IP / K / LDH / Na / PL / RALB / TBIL / TC / TG / TP / gamma-GTP: tissue Plasma
compound,measurement,setting,value
CN/C(=N/CCSCc1nc[nH]c1C)NC#N [CIMETIDINE],TERMINAL_BW,3 h,213.9 g
same,APTT,3 h,17.7 s
same,Bas,3 h,0%
same,Eos,3 h,0.8%
same,Fbg,3 h,212 mg/dL
same,Hb,3 h,12.6 g/dL
same,Ht,3 h,37.5%
same,Lym,3 h,77.6%
same,MCH,3 h,21.5 pg
same,MCHC,3 h,33.7%
same,MCV,3 h,63.8 fL
same,Mono,3 h,3%
same,Neu,3 h,17.2%
same,PT,3 h,12.8 s
same,Plat,3 h,128.8 x10_4/uL
same,RBC,3 h,587.2 x10_4/ul
same,Ret,3 h,8.2%
same,WBC,3 h,84.3 x10_2/uL
same,KIDNEY_L,3 h,1 g
same,KIDNEY_R,3 h,0.9 g
same,KIDNEY_TOTAL,3 h,1.9 g
same,LIVER,3 h,10.5 g
same,A/G,3 h,1.6
same,ALP,3 h,1248.6 IU/L
same,ALT,3 h,37.4 IU/L
same,AST,3 h,68.6 IU/L
same,BUN,3 h,10.8 mg/dL
same,CRE,3 h,0.4 mg/dL
same,Ca,3 h,10.7 mg/dL
same,Cl,3 h,103.4 meq/L
same,DBIL,3 h,0.072 mg/dL
same,GLC,3 h,191.2 mg/dL
same,IP,3 h,8.8 mg/dL
same,K,3 h,4.1 meq/L
same,LDH,3 h,155.6 IU/L
same,Na,3 h,140.8 meq/L
same,PL,3 h,158 mg/dL
same,RALB,3 h,3.3 g/dL
same,TBIL,3 h,0.1 mg/dL
same,TC,3 h,83 mg/dL
same,TG,3 h,57 mg/dL
same,TP,3 h,5.4 g/dL
same,gamma-GTP,3 h,1.4 IU/L
same,TERMINAL_BW,6 h,209.1 g
same,APTT,6 h,19.5 s
same,Bas,6 h,0%
same,Eos,6 h,1%
same,Fbg,6 h,224 mg/dL
same,Hb,6 h,13 g/dL
same,Ht,6 h,37.3%
same,Lym,6 h,72.4%
same,MCH,6 h,21.6 pg
same,MCHC,6 h,34.8%
same,MCV,6 h,62.2 fL
same,Mono,6 h,3.4%
same,Neu,6 h,22.6%
same,PT,6 h,13.4 s
same,Plat,6 h,134.4 x10_4/uL
same,RBC,6 h,600.8 x10_4/ul
same,Ret,6 h,7.9%
same,WBC,6 h,100.3 x10_2/uL
same,KIDNEY_L,6 h,1 g
same,KIDNEY_R,6 h,1 g
same,KIDNEY_TOTAL,6 h,1.9 g
same,LIVER,6 h,9.3 g
same,A/G,6 h,1.7
same,ALP,6 h,926.2 IU/L
same,ALT,6 h,38.2 IU/L
same,AST,6 h,68 IU/L
same,BUN,6 h,8.4 mg/dL
same,CRE,6 h,0.4 mg/dL
same,Ca,6 h,10.4 mg/dL
same,Cl,6 h,103.2 meq/L
same,DBIL,6 h,0.068 mg/dL
same,GLC,6 h,185 mg/dL
same,IP,6 h,9.6 mg/dL
same,K,6 h,3.8 meq/L
same,LDH,6 h,148.6 IU/L
same,Na,6 h,141 meq/L
same,PL,6 h,138.2 mg/dL
same,RALB,6 h,3.4 g/dL
same,TBIL,6 h,0.1 mg/dL
same,TC,6 h,70.2 mg/dL
same,TG,6 h,60 mg/dL
same,TP,6 h,5.5 g/dL
same,gamma-GTP,6 h,1.4 IU/L
same,TERMINAL_BW,9 h,208.3 g
same,APTT,9 h,20.6 s
same,Bas,9 h,0%
same,Eos,9 h,0.8%
same,Fbg,9 h,214.4 mg/dL
same,Hb,9 h,12.6 g/dL
same,Ht,9 h,36.5%
same,Lym,9 h,80.2%
same,MCH,9 h,21.6 pg
same,MCHC,9 h,34.5%
same,MCV,9 h,62.6 fL
same,Mono,9 h,2.6%
same,Neu,9 h,15.6%
same,PT,9 h,13.9 s
same,Plat,9 h,126.2 x10_4/uL
same,RBC,9 h,583.4 x10_4/ul
same,Ret,9 h,7.8%
same,WBC,9 h,70.7 x10_2/uL
same,KIDNEY_L,9 h,1 g
same,KIDNEY_R,9 h,1 g
same,KIDNEY_TOTAL,9 h,1.9 g
same,LIVER,9 h,8.8 g
same,A/G,9 h,1.7
same,ALP,9 h,807.2 IU/L
same,ALT,9 h,31 IU/L
same,AST,9 h,58.6 IU/L
same,BUN,9 h,9.8 mg/dL
same,CRE,9 h,0.4 mg/dL
same,Ca,9 h,10.3 mg/dL
same,Cl,9 h,102 meq/L
same,DBIL,9 h,0.068 mg/dL
same,GLC,9 h,189.8 mg/dL
same,IP,9 h,10.3 mg/dL
same,K,9 h,3.9 meq/L
same,LDH,9 h,115.6 IU/L
same,Na,9 h,141 meq/L
same,PL,9 h,136 mg/dL
same,RALB,9 h,3.4 g/dL
same,TBIL,9 h,0.1 mg/dL
same,TC,9 h,72.4 mg/dL
same,TG,9 h,36.4 mg/dL
same,TP,9 h,5.5 g/dL
same,gamma-GTP,9 h,1.6 IU/L
same,TERMINAL_BW,24 h,223.6 g
same,APTT,24 h,19.1 s
same,Bas,24 h,0%
same,Eos,24 h,0.8%
same,Fbg,24 h,214.8 mg/dL
same,Hb,24 h,13.5 g/dL
same,Ht,24 h,40.7%
same,Lym,24 h,82.2%
same,MCH,24 h,21.5 pg
same,MCHC,24 h,33.3%
same,MCV,24 h,64.5 fL
same,Mono,24 h,2.2%
same,Neu,24 h,13.6%
same,PT,24 h,12.7 s
same,Plat,24 h,126.7 x10_4/uL
same,RBC,24 h,631.2 x10_4/ul
same,Ret,24 h,6.5%
same,WBC,24 h,86.6 x10_2/uL
same,KIDNEY_L,24 h,1 g
same,KIDNEY_R,24 h,1 g
same,KIDNEY_TOTAL,24 h,2 g
same,LIVER,24 h,10.7 g
same,A/G,24 h,1.6
same,ALP,24 h,1056 IU/L
same,ALT,24 h,35.8 IU/L
same,AST,24 h,67.8 IU/L
same,BUN,24 h,15.4 mg/dL
same,CRE,24 h,0.4 mg/dL
same,Ca,24 h,10.9 mg/dL
same,Cl,24 h,102.2 meq/L
same,DBIL,24 h,0.09 mg/dL
same,GLC,24 h,200.8 mg/dL
same,IP,24 h,7.4 mg/dL
same,K,24 h,3.9 meq/L
same,LDH,24 h,183.4 IU/L
same,Na,24 h,140.8 meq/L
same,PL,24 h,159.8 mg/dL
same,RALB,24 h,3.5 g/dL
same,TBIL,24 h,0.2 mg/dL
same,TC,24 h,77.8 mg/dL
same,TG,24 h,94 mg/dL
same,TP,24 h,5.6 g/dL
same,gamma-GTP,24 h,1.6 IU/L
